PubChem BioAssay AID200 (DTP/NCI, 2004)
Where “and” joins values, the source holds several entries; their conditions need not be identical. Equal values may be shown once. Toxic doses and inconclusive results are not listed.

Test system: B6C3F1 mice, B16 melanoma ip, median survival T/C
Experiment: NCI In Vivo Anticancer Drug Screen. Data for tumor model B16 Melanoma (intraperitoneal) in B6C3F1 mice
Conditions: endpoint: median survival time, schedule: Q01DX009 (ip), higher = longer survival
Procedure: The antitumor activity of compounds was measured in mice bearing transplantable tumors. Survival or tumor size were measured and the results are expressed as the measurement made in the treated group (T) divided by the measurement made in the vehicle treated control group (C). The tumor model used in this assay is B16 Melanoma (intraperitoneal) in B6C3F1 mice

[1] = dose: 50.0 mg/kg/injection, vehicle: saline with Tween-80
[2] = dose: 100.0 mg/kg/injection, vehicle: saline with Tween-80
[3] = dose: 200.0 mg/kg/injection, vehicle: saline with Tween-80
[4] = dose: 100.0 mg/kg/injection, vehicle: Klucel (hydroxypropylcellulose) (HPC)
[5] = dose: 200.0 mg/kg/injection, vehicle: Klucel (hydroxypropylcellulose) (HPC)
[6] = dose: 400.0 mg/kg/injection, vehicle: Klucel (hydroxypropylcellulose) (HPC)
[7] = dose: 3.0 mg/kg/injection, vehicle: saline
[8] = dose: 6.0 mg/kg/injection, vehicle: saline
[9] = dose: 12.0 mg/kg/injection, vehicle: saline
[10] = dose: 12.5 mg/kg/injection, vehicle: Klucel (hydroxypropylcellulose) (HPC)
[11] = dose: 25.0 mg/kg/injection, vehicle: Klucel (hydroxypropylcellulose) (HPC)
[12] = dose: 50.0 mg/kg/injection, vehicle: Klucel (hydroxypropylcellulose) (HPC)
[13] = dose: 12.5 mg/kg/injection, vehicle: saline with Tween-80
[14] = dose: 25.0 mg/kg/injection, vehicle: saline with Tween-80
[15] = dose: 6.25 mg/kg/injection, vehicle: saline with Tween-80
[16] = dose: 12.5 mg/kg/injection, vehicle: saline
[17] = dose: 25.0 mg/kg/injection, vehicle: saline

`COc1cc(C[C@@H]2COC(=O)[C@]2(O)Cc2ccc(O)c(OC)c2)ccc1O` was tested, and the T/C (dose: 1.0 mg/kg/injection, vehicle: saline + alcohol) was 102 % of control, the T/C (dose: 2.0 mg/kg/injection, vehicle: saline + alcohol) was 88 % of control and the T/C (dose: 4.0 mg/kg/injection, vehicle: saline + alcohol) was 91 % of control. For the same compound, the T/C (dose: 8.0 mg/kg/injection, vehicle: saline + alcohol) was 101 % of control and the T/C (dose: 16.0 mg/kg/injection, vehicle: saline + alcohol) was 86 % of control.

With `NC(=O)NC(CC(=O)O)C(=O)O` (stereo not drawn) the T/C [1] was 113 % of control, the T/C [2] was 95 % of control and the T/C [3] was 102 % of control.

With `O=C(O)CNC(=O)CNC(=O)CNC(=O)CNC(=O)CNC(=O)OCc1ccccc1` the T/C [4] was 111 % of control, the T/C [5] was 96 % of control and the T/C [6] was 97 % of control.

In the case of `COC1C(N)C(OC2C(Oc3cccc4c(O)c5c(=O)oc6ccc(C)c7c(=O)oc(c34)c5c67)OC(C)C(O)C2(C)O)OC(C)C1O` (stereo not drawn), the T/C (dose: 1.09 mg/kg/injection, vehicle: DMSO) is reported as 226 % of control, the T/C (dose: 1.25 mg/kg/injection, vehicle: other) is reported as 179 % of control and the T/C (dose: 1.81 mg/kg/injection, vehicle: DMSO) is reported as 255 % of control. The T/C (dose: 2.5 mg/kg/injection, vehicle: other) was 227 % of control, the T/C (dose: 3.0 mg/kg/injection, vehicle: DMSO) was 244 % of control and the T/C (dose: 5.0 mg/kg/injection, vehicle: DMSO) was 326 % of control. The T/C (dose: 5.0 mg/kg/injection, vehicle: other) was 227 % of control, the T/C (dose: 8.4 mg/kg/injection, vehicle: DMSO) was 190 % of control and the T/C (dose: 10.0 mg/kg/injection, vehicle: other) was 179 % of control.

With `CCc1ncnc2cc(OCC3CO3)c(OC)cc12` (stereo not drawn) the T/C (dose: 6.25 mg/kg/injection, vehicle: suspension in saline) was 118 % of control and the T/C (dose: 50.0 mg/kg/injection, vehicle: suspension in saline) was 117 % of control.

For `COC1CC(C)C(OC)C2=CC(=O)C=C(NC(=O)/C(C)=C/C=C\C(C)C(OC(N)=O)/C(C)=C\C(C)C1OC)C2=O` (stereo not drawn), the T/C (dose: 2.5 mg/kg/injection, vehicle: saline + alcohol) was 176 % of control, the T/C (dose: 5.0 mg/kg/injection, vehicle: saline + alcohol) was 155 % of control and the T/C (dose: 10.0 mg/kg/injection, vehicle: saline + alcohol) was 174 % of control.

With `NC(=O)c1ccc[n+](Cc2c(Cl)cccc2Cl)c1` the T/C (dose: 1.5 mg/kg/injection, vehicle: saline) was 98 % of control, the T/C [7] was 98 % of control and the T/C [8] was 103 % of control. The T/C [9] was 98 % of control.

For `CCOc1cc2c(cc1C(C)c1ccc(OC)cc1)OCO2` (stereo not drawn), the T/C (dose: 12.5 mg/kg/injection, vehicle: distilled water + alcohol) was 116 % of control, the T/C (dose: 25.0 mg/kg/injection, vehicle: distilled water + alcohol) was 113 % of control and the T/C (dose: 50.0 mg/kg/injection, vehicle: distilled water + alcohol) was 102 % of control. The T/C (dose: 100.0 mg/kg/injection, vehicle: distilled water + alcohol) was 98 % of control and the T/C (dose: 200.0 mg/kg/injection, vehicle: distilled water + alcohol) was 108 % of control.

For `O=c1[nH]cnc2n[nH]nc12`, the T/C [10] was 107 % of control, the T/C [11] was 97 % of control and the T/C [12] was 92 % of control. For the same compound, the T/C [4] was 90 % of control, the T/C [5] was 97 % of control and the T/C [6] was 90 % of control.

With `CCCCNc1ccc2nnc(C)n2n1` the T/C (dose: 50.0 mg/kg/injection, vehicle: DMSO) was 98 % of control and 102 % of control, the T/C (dose: 100.0 mg/kg/injection, vehicle: DMSO) was 110 % of control and 92 % of control and the T/C (dose: 200.0 mg/kg/injection, vehicle: DMSO) was 92 % of control.

`CC(C#N)(C#N)N=Nc1ccc(Cl)cc1Cl` was tested, and the T/C [13] was 98 % of control, the T/C [14] was 95 % of control and the T/C [1] was 95 % of control. The T/C [2] was 95 % of control, the T/C [3] was 110 % of control and the T/C (dose: 400.0 mg/kg/injection, vehicle: saline with Tween-80) was 89 % of control.

In the case of `Cc1ccc(S(=O)(=O)OCCN(CCOS(=O)(=O)c2ccc(C)cc2)c2ccc(F)cc2)cc1`, the T/C (dose: 3.12 mg/kg/injection, vehicle: saline + alcohol) is reported as 109 % of control, the T/C (dose: 6.25 mg/kg/injection, vehicle: saline + alcohol) is reported as 109 % of control and the T/C (dose: 12.5 mg/kg/injection, vehicle: saline + alcohol) is reported as 108 % of control. The T/C (dose: 25.0 mg/kg/injection, vehicle: saline + alcohol) was 111 % of control and the T/C (dose: 50.0 mg/kg/injection, vehicle: saline + alcohol) was 108 % of control.

With `COc1c2occc2c(N=NN(C)C)c2ccc(=O)oc12` the T/C [15] was 98 % of control, the T/C [13] was 99 % of control and the T/C [14] was 104 % of control. For the same compound, the T/C [1] was 107 % of control.

`CCCNc1ncnc2c1cnn2C` was tested, and the T/C [16] was 91 % of control and the T/C [17] was 93 % of control.

For `O/N=C/c1ccccc1O.O/N=C/c1ccccc1O.[Cu]`, the T/C (dose: 1.56 mg/kg/injection, vehicle: saline with Tween-80) was 94 % of control and 95 % of control, the T/C (dose: 3.12 mg/kg/injection, vehicle: saline with Tween-80) was 110 % of control and 86 % of control and the T/C [15] was 106 % of control. For the same compound, the T/C [13] was 113 % of control and 88 % of control, the T/C [14] was 95 % of control and the T/C [1] was 95 % of control.

For `Cc1ccc2nc(-c3ccc4nc(-c5ccc(N=Nc6ccc(-c7nc8ccc(-c9nc%10ccc(C)c(S(=O)(=O)O)c%10s9)cc8s7)cc6)cc5)sc4c3)sc2c1S(=O)(=O)O`, the T/C [16] was 87 % of control, the T/C [17] was 86 % of control and the T/C (dose: 100.0 mg/kg/injection, vehicle: saline) was 88 % of control.

`CC(=O)NO` was tested, and the T/C (dose: 50.0 mg/kg/injection, vehicle: water) was 89 % of control, the T/C (dose: 100.0 mg/kg/injection, vehicle: water) was 102 % of control and the T/C (dose: 200.0 mg/kg/injection, vehicle: water) was 100 % of control. For the same compound, the T/C (dose: 400.0 mg/kg/injection, vehicle: water) was 112 % of control.

For `O=NN(CCCl)C(=O)NC1[C@H](O)CCC[C@@H]1O` (stereo partly drawn), the T/C (dose: 0.62 mg/kg/injection, vehicle: saline) was 159 % of control, the T/C (dose: 1.25 mg/kg/injection, vehicle: saline) was 225 % of control and the T/C (dose: 2.5 mg/kg/injection, vehicle: saline) was 251 % of control. The T/C (dose: 5.0 mg/kg/injection, vehicle: saline) was 190 % of control.

With `C[C@]12CCC(=O)C(O)=C1CC[C@@H]1[C@@H]2CC[C@]2(C)C(=O)CC[C@@H]12` the T/C [10] was 88 % of control and 95 % of control, the T/C [11] was 97 % of control and the T/C [12] was 97 % of control and 102 % of control. For the same compound, the T/C [4] was 92 % of control and 98 % of control, the T/C [5] was 94 % of control and 95 % of control and the T/C [6] was 87 % of control and 93 % of control.

In the case of `CCCCCCCCCCCC(=O)NC1CC(O[C@H]2C[C@](O)(C(=O)CO)Cc3c(O)c4c(c(O)c32)C(=O)c2c(OC)cccc2C4=O)OC(C)C1O` (stereo partly drawn), the T/C [7] is reported as 171 % of control and 294 % of control, the T/C [8] is reported as 250 % of control and 333 % of control and the T/C [9] is reported as 333 % of control and 357 % of control. The T/C (dose: 24.0 mg/kg/injection, vehicle: saline) was 122 % of control and 357 % of control and the T/C (dose: 48.0 mg/kg/injection, vehicle: saline) was 94 % of control.
